Tests used:
human gut organoids = assay: In vitro β-Ala-Lys-AMCA uptake by human gut organoids; assay type: cell-based; details: 25 μM, 4 hours at 37° C., fluorescence
Description: Gut organoids grown in the differentiation induction medium 2 were washed with PBS and cultured in DMEM containing 25 μM fluorophore-conjugated dipeptide β-Ala-Lys-AMCA (Biotrend Chemicals) for 4 hours at 37° C. […] All sample images were recorded under standard conditions. For each concentration, 3 independent assays were performed.

[1] = test system: hESC-derived gut organoid showing peristalsis-like movement; assay: In vitro contractility of human gut organoids (motile); assay type: cell-based; details: 0.2 μM, aspect ratio from video; for frequency / rate of gut organoid contractile movement: days 80-90 in culture
Description: A single human embryonic stem cell (hESC)-derived gut organoid showing peristalsis-like movement (days 80-90 in culture) was treated with the peristaltic stimulator histamine (0.2 μM) and the cholinergic antagonist atropine sulfate (0.2 μM). Contractility responses were recorded using an inverted microscope. Image analysis software CL-Quant version 3.10 (Nikon Corporation) was used to visualize movements in the gut organoid. First, in each frame of the time-lapse images, the software was used to identify a specific region of the organoid. Second, the software fitted an ellipse to this region and calculated the ratio of the longest to shortest diameter to obtain an aspect ratio. Changes in the aspect ratios with time were plotted on the chart. Videos were recorded at 30 frames per second.

| Structure (SMILES) | uptake (peptide absorption) of the fluorophore-conjugated dipeptide by gut organoids (human gut organoids) | uptake (peptide absorption) of the fluorophore-conjugated dipeptide by gut organoids (human gut organoids; listed as β-Ala-Lys-N(c)-7-amino-4-methylcoumarin-3-acetic acid) | contraction amplitude [1] | frequency / rate of gut organoid contractile movement [1] |
| --- | --- | --- | --- | --- |
| Cc1c(CC(=O)NCCCC[C@H](NC(=O)CCN)C(=O)O)c(=O)oc2cc(N)ccc12 [β-Ala-Lys-AMCA, β-Ala-Lys-N(c)-7-amino-4-methylcoumarin-3-acetic acid] | capable of uptake | showed peptide absorption |  |  |
| CN1[C@@H]2CC[C@H]1CC(OC(=O)C(CO)c1ccccc1)C2.CN1[C@@H]2CC[C@H]1CC(OC(=O)C(CO)c1ccccc1)C2.O=S(=O)(O)O (some centres unmarked) [atropine, atropine sulfate] |  |  | decreased | decreased |
| NCCc1c[nH]cn1 [histamine] |  |  |  | increased |

From patent US12275958B2, “Gut organoid and method for producing the same” (DAI NIPPON PRINTING CO., LTD., priority 2017, dated 2025)
